Values of other authors, collected in patent US20210369751A1, “BIOLOGICALLY ACTIVE COMPOSITIONS AND METHODS OF USING” (Mediwel Labs, LLC, priority 2020, published 2021).
“Also recorded” adds a separate entry of the source.

Key:
CD38 = biological target: T1, CD38 (Homo sapiens, UniProt P28907); settings: purified pharmaceutical grade flavonoids; competitive antagonists
T1 sequence (P28907 1-300): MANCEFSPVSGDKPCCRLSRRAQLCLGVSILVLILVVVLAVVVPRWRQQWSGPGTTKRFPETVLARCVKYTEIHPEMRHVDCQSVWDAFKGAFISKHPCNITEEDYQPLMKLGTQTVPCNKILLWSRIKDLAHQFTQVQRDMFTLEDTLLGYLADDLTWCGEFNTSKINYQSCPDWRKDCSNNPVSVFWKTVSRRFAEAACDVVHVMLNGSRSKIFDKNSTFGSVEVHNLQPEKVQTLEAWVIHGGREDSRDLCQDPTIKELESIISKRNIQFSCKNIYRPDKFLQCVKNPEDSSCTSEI

[1] = propranolol co-administered with 3 mg piperine
[2] = 20 mg piperine daily for seven days before 150 mg theophylline
[3] = 20 mg piperine daily for seven days before 300 mg phenytoin

Compound	inhibition of CD38 and its catalytic activity (CD38)	elimination rate of propranolol with piperine [1]	maximum blood concentration / blood levels of propranolol with piperine [1]	elimination rate of theophylline with piperine pretreatment [2]	maximum concentration of theophylline, pretreated with piperine versus drug alone ([2]; six healthy volunteers) [times]	elimination of phenytoin with piperine pretreatment [3]	maximum concentration of phenytoin with piperine pretreatment [3]	time to maximum concentration of phenytoin with piperine pretreatment [3]
O=c1cc(-c2ccc(O)cc2)oc2cc(O)cc(O)c12 [apigenin]	potent inhibition	–	–	–	–	–	–	–
O=C(/C=C/C=C/c1ccc2c(c1)OCO2)N1CCCCC1 [piperine]	–	did not affect the elimination rate; also recorded: without slowing down the drug elimination rate	increased two fold; also recorded: doubling its blood levels	significantly slowed down	1.5	significantly slower elimination	significantly higher concentrations	shorter time
O=c1c(O)c(-c2ccc(O)c(O)c2)oc2cc(O)cc(O)c12 [quercetin]	potent inhibition	–	–	–	–	–	–	–
